We go through 24 molecules from ChEMBL document CHEMBL1201862, “PubChem BioAssay data set” (2004).

The target of test [1] is T1, Corticotropin-releasing factor receptor 2/Corticotropin-releasing factor-binding protein (Homo sapiens, UniProt P24387+Q13324).
T1 sequence (Q13324 whole entry): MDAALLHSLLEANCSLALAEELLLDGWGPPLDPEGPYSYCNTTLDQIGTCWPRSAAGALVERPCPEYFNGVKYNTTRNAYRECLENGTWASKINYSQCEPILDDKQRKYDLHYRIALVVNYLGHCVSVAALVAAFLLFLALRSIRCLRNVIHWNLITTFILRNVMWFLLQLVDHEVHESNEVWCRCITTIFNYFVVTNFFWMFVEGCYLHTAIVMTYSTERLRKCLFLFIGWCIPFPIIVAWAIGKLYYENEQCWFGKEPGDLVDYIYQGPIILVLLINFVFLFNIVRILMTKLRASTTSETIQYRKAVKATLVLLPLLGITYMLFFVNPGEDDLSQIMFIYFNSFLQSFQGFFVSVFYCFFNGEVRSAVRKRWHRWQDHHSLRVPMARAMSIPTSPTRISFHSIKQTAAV
T1 sequence (P24387 whole entry): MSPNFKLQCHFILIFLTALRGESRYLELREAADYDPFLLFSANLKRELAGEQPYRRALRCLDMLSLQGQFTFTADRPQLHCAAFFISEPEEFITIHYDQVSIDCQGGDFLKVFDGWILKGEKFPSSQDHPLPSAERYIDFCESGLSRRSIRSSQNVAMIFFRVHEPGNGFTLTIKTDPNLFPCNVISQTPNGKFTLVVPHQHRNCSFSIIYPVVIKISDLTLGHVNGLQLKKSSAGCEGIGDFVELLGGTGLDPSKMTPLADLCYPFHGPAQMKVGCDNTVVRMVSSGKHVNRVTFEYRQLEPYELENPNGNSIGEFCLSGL
In words: activators of CRF receptor 2 with binding protein – uHTS hits, confirmation (AID 602473). The class given is functional. To be noted: read-out: EC50_Mean.

Test [2] concerns the target T2, Replicative DNA helicase DnaB (Mycobacterium tuberculosis, UniProt P9WMR3).
T2 sequence (P9WMR3 whole entry): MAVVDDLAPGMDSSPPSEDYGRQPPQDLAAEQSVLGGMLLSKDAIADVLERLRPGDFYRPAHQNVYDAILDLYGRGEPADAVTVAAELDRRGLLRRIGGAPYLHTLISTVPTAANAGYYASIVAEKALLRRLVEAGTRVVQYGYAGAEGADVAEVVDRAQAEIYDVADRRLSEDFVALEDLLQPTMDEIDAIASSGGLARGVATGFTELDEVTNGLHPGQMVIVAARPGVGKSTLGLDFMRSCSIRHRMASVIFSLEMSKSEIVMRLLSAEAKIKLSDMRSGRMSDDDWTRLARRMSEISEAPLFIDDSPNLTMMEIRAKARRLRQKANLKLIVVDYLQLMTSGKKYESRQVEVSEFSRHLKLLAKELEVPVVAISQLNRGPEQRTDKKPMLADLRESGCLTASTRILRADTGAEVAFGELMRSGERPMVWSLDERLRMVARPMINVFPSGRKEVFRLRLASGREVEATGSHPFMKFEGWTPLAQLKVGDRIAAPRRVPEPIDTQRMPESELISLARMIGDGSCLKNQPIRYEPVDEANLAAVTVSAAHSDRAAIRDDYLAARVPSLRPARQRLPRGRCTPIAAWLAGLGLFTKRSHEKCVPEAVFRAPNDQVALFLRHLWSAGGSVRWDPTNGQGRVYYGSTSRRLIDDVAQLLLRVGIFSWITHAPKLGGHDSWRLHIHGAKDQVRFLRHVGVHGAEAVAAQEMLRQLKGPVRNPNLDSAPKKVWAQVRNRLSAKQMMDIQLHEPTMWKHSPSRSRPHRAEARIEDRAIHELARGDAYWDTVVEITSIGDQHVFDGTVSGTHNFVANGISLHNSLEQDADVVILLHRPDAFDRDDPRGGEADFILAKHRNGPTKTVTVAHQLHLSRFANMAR
In words: DnaB intein splicing inhibitors, dose response, biochemical, cell-free fluorescence (AID 449749). The format is functional.

A further test addresses T3, Protein RecA (Mycobacterium tuberculosis, UniProt P9WHJ3).
T3 sequence (P9WHJ3 whole entry): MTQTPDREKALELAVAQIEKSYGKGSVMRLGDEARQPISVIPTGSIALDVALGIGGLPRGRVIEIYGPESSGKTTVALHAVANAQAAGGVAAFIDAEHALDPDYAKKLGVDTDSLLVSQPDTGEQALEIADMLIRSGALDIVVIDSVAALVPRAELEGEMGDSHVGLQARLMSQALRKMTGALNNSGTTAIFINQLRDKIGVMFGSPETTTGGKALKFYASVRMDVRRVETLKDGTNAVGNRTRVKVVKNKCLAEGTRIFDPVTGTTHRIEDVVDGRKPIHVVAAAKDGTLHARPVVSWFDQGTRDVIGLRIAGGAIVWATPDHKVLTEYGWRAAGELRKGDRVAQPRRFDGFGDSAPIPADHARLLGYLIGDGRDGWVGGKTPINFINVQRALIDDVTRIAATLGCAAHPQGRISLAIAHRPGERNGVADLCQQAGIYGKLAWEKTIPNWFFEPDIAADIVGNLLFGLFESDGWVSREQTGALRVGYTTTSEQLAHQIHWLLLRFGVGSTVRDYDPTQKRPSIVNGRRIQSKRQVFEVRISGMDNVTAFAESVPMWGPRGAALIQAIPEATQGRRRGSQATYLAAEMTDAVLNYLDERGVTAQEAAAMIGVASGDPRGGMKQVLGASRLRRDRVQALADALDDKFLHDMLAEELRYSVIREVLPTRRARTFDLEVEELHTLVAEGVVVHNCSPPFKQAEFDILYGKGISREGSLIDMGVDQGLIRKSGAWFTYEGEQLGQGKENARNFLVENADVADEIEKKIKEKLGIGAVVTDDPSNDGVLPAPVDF
In words: Fluorescence Cell-Free Homogeneous Dose Retest to Identify Inhibitors of RecA-Intein Splicing Activity. [Related pubchem assays (depositor defined):AID2097, AID2223, AID489010, AID492950]. The class given is functional.

A short description of test [3]: growth suppression of PTEN-null colon cells, dose response, cell-based, HCT116 PTEN knockout (AID 1047).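 Further: HCT116 colon tumor cells with PTEN knocked out; cells exposed to compound for 60 hours before readout; potency for loss of cell viability measured by luminescence.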 The format is functional.
Test [4] in a line: growth suppression of beta-catenin-knockout colon cells, dose response, cell-based, HCT116, human colon tumor (AID 1045).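 Further: HCT116 colon tumor cells with beta catenin knocked out; cells exposed to compound for 60 hours.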 The format is functional.
Test [5] in a line: inhibitors of firefly luciferase expression or activity, dose response, H4 neuroglioma cells, luminescence (AID 1990). The class given is functional, cell-based.
Test [6] can be described thus: Luminescence Cell-Based Dose Response HTS to Identify Inhibitors of 5'UTR Stem-Loop Driven Prion Protein mRNA Translation in H4 Neuroglioblastoma Cells. [Related pubchem assays: 1827 (Project Summary), 1813 (Primary HTS)]. The class given is functional.
Test [7] in a line: inhibitors of SNCA 5'UTR-driven reporter translation, confirmation, H4 neuroglioma cells, luminescence (AID 1988). The class given is functional, cell-based.
In test [8] the test system is Streptococcus sp. 'group A'. In words: growth inhibition of control SK(-) GAS strain, dose response, counter-screen for streptokinase expression inhibitor project, luminescence, kanamycin, BacTiterGlo, confirmation (AID 1900). The format is functional, organism-based. For orientation: Counterscreens check selectivity or assay interference.
The target in another test is T4, Streptokinase A (Streptococcus pyogenes serotype M1, UniProt P10520).
T4 sequence (P10520 whole entry): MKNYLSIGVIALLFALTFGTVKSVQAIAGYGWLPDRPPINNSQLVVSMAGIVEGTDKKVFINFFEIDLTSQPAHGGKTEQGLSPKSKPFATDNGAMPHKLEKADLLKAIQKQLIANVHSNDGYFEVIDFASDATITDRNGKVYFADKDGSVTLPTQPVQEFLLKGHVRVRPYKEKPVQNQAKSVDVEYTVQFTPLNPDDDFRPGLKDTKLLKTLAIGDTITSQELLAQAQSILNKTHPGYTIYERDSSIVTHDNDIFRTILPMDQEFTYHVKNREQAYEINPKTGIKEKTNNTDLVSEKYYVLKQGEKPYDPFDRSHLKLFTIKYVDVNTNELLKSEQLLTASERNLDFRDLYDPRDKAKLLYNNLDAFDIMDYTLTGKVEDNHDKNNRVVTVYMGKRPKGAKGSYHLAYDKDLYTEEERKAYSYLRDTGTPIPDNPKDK
In words: S. pyogenes streptokinase expression inhibitors, potency, dose response, plasminogen activation absorbance, OD405 (AID 1914).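 Further: secreted streptokinase activity via plasminogen activation per viability signal from cell pellet.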 The class given is functional, Streptococcus pyogenes M1 GAS.

The next test deals with Streptococcus. In words: Group A Streptococcus viability loss, dose response, counter-screen for streptokinase expression inhibitor project, luminescence, BacTiterGlo (AID 1915).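 Further: potency for reduction of bacterial viability or growth.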 The class given is functional, organism-based.
Test [9] is described as follows: inhibitors of intracellular T. cruzi replication, confirmation, NIH3T3 host cells, beta-gal luminescence (AID 2044).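 Further: intracellular parasites grown in NIH/3T3 mouse fibroblasts as host cells; luminescent beta-galactosidase reporter signal from transgenic T. cruzi replicating inside host cells; inhibitors lower the luminescence signal.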 The format is functional, cell-based.
Test [10] can be described thus: cytotoxicity toward NIH3T3 fibroblasts, dose response, counter-screen, cell-based, ATP luminescence, mouse fibroblasts (AID 2010).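 Further: cells exposed to compound for about 90 hours before reading.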 The class given is functional.
Test [11] is described as follows: Luminescence Cell-Based Dose Retest to Confirm Inhibitors of Cancer Stem Cells. [Related pubchem assays (depositor defined):AID2717, AID2721]. The class given is functional. To be noted: Homo sapiens.

The structures appear in SMILES notation. Active and inactive are the calls of the source. For most assays here, no stated cut-off is given here; in the data, actives have a measured EC50 and inactives only a lower limit.

Take `CCOC(=O)/C(=C/C=C1\Sc2ccccc2N1CC)C(C)=O`: the EC50 in test [1] was 11.5 µM (active).

Broadly, the AC50 is the concentration giving half of the maximal activity seen. `COc1cc(C2C(C#N)=C(N)Oc3[nH]nc(C)c32)ccc1OC(=O)c1ccccc1` (stereo not drawn): the concentration at half-maximal activity (AC50) in test [2] is 20.3 µM (active). In addition, the EC50 at Protein RecA is 17.3 µM (active).

Consider `Cn1c(C(=O)NCCCN2CCN(c3ccccc3F)CC2)cc2c(=O)n(C)c3ccccc3c21`, for which the EC50 in test [3] is 17.2 µM (active); in test [4], 17.7 µM (active).

Take `Cc1ccc(S(=O)(=O)N2CCOC23CCN(C(=O)c2ccc(Cl)cc2Cl)CC3)cc1`: the values for the EC50 in [5], in test [6] and in test [7] were > 120 µM (not active), 17.7 µM (active) and 13.8 µM (active), respectively.

With `Cc1cccc(C(=O)NC2C(=O)NNC2c2ccc(Cl)cc2)c1` (stereo not drawn), the AC50 in test [2] is 18.7 µM (active). Further, the EC50 at Protein RecA was 18.9 µM (active).

Take `CC(C)Nc1nc(N=C(N)S)nc(NC(C)C)n1`: the EC50 in test [5], in [6] and in [7] was > 120 µM (not active) throughout.

Turning to `O=C(Nc1ccc(NC(=O)c2sc3ccccc3c2Cl)cc1)c1ccco1`, the EC50 was 9.27 µM (active) in test [3] and 9.19 µM (active) in test [4].

Consider `CC(C)(C)OC(=O)N1CC=C2C(C#N)=C(N)C(C#N)(C#N)C(c3cccs3)C2C1` (stereo not drawn), for which the AC50 in test [2] was > 380 µM (inactive). On Protein RecA, the EC50 is 5.1 µM (active).

As for `Clc1ccc(CN(Cc2ccccc2)C(c2cccs2)c2nnnn2C2CCCC2)cc1` (stereo not drawn), the EC50 in [3] was 53.2 µM (active); in test [4], 32.8 µM (active).

As to `CCOc1ccc(NC(=O)c2cn(CC(C)C)c(=O)c3c2c2ccccc2n3C)cc1`, the EC50 was 10 µM (active) in test [3] and 13.4 µM (active) in test [4].

Take `CC1(C)CC(=O)C(C2C3=C(CC(C)(C)CC3=O)Oc3c(Br)cc(Br)cc32)=C(O)C1` (stereo not drawn): the EC50 in test [8] is 4.66 µM (active); on Streptokinase A it was 24.8 µM (active); in the test with Streptococcus, 12.2 µM (active); in test [1], 10.3 µM (active).

As to `CCCn1c(=O)c(C(=O)NNC(=O)c2ccc(Cl)cc2Cl)c(O)c2ccccc21`, the EC50 in test [1] is 4.01 µM (active).

With `CC1CN(CCCCOc2cccc(Oc3ccccc3)c2)CC(C)O1` (stereo not drawn), the EC50 in [9] was 1.01 µM (active); in test [10], > 60 µM (inconclusive). Further, the AC50 in test [11] was 13.3 µM (active).

On to `Cc1ccc2oc(=O)c(/C=C(\O)c3sc(C)nc3C)nc2c1`, for which the EC50 in test [1] is 7.67 µM (active).

In the case of `CC1CCc2c(c3ccccc3n2C(=O)CCl)C1` (stereo not drawn), the AC50 in [2] was > 380 µM (inactive). Besides, the EC50 on Protein RecA was 0.751 µM (active).

For `Cc1ccc(C)c2sc(NC(=O)c3ccc(N4C(=O)CCC4=O)cc3)nc12`, the EC50 in [1] was > 53 µM (inactive).

For the molecule `CCc1cc2c(SCC(=O)Nc3ccc(Cl)cn3)ncnc2s1`, the EC50 is 31.9 µM (active) in test [3] and 71.3 µM (active) in [4].

Consider `COc1ccc(F)cc1CN1CCN(c2ncnc3scc(-c4ccccc4)c23)CC1`, for which the EC50 in test [5] is 15.8 µM (active); in test [6], 23.9 µM (active); in test [7], 15.6 µM (active).

Consider `Cc1ccc2[nH]c(SCC3CCCCO3)nc2c1` (stereo not drawn), for which the EC50 in [6] is > 60 µM (inconclusive).

For the molecule `O=C(CSc1nnc(-c2ccc3c(c2)OCO3)o1)Nc1ncc(Cl)cc1Cl`, the EC50 in [3] was 11.4 µM (active); in test [4], 9.18 µM (active).

Turning to `CCOc1cc(NC(=O)c2ccccc2C)c(OCC)cc1NC(=O)C1=Cc2ccccc2OC1`, the EC50 was > 120 µM (not active) in test [5], 18.7 µM (active) in test [6] and 9.61 µM (active) in test [7].

For the molecule `COC(=O)c1sccc1NC(=O)c1cc(-c2cccc(C)c2)nc2ccccc12`, the values for the EC50 in [3] and in [4] were 6.74 µM (active) and 8.24 µM (active), respectively.

In the case of `O=S(=O)(Nc1ccc(-n2cnnn2)cc1)c1ccc(F)c(F)c1F`, in test [2], the AC50 was > 380 µM (inactive). In addition, the EC50 at Protein RecA is > 380 µM (inactive).

As for `CC(C)(C)c1ccc(/C=C/C(=O)c2ccc(NC3=NCCCS3)cc2)cc1`, the EC50 in test [9] was 2.08 µM (active); in test [3], 6.9 µM (active); in [10] it was > 60 µM (not active); in test [4], 4.92 µM (active). Besides, in test [11], the AC50 is 2.63 µM (active).
